Results taken from ChEMBL document CHEMBL4651402, “Screening of ~5500 FDA-approved drugs and clinical candidates for anti-SARS-CoV-2 activity” (2021).
pIC50: −log10 of the molar value.

Tested on: SARS-CoV-2
Assay: microbe, parasite or virus in culture
Conditions: Severe acute respiratory syndrome coronavirus 2, Vero C1008, 48 h; for IC50: read-out: pIC50 (converted)

Row | Structure (SMILES) | pIC50 | IC50 [µM]
1 | Nc1nc(=O)n([C@H]2C[C@H](O)[C@@H](CO)O2)cc1F | < 4.70 | > 20
2 | CN(C)CCC=C1c2ccccc2C(C)(C)c2ccccc21 | < 4.70 | > 20
3 | CN(C)C1CC(c2ccccc2)c2ccccc21 (configuration not stated) | < 4.70 | > 20
4 | CC1=N[C@H](C(=O)O)[C@@H](O)CN1 | < 4.70 | > 20
5 | CN[C@@H]1[C@@H](O[C@H]2O[C@H](CO)[C@@H](N)[C@H](O)[C@H]2O)O[C@H]2C[C@@H](N)[C@@H](O[C@H]3[C@H](O)[C@@H](O)[C@H](N)C[C@@H]3N)O[C@@H]2[C@@H]1O | < 4.70 | > 20
6 | CN(C)CCCSC(=N)N | < 4.70 | > 20
7 | NCCOC[C@H](N)C(=O)O | < 4.70 | > 20
8 | O=C(O)/C=C/c1c[nH]cn1 | < 4.70 | > 20
9 | CNS(=O)(=O)Cc1ccc2[nH]cc(CCN(C)C)c2c1 | < 4.70 | > 20
10 | O=C(O)C1CCc2cc(C3CCCCC3)c(Cl)cc21 (configuration not stated) | < 4.70 | > 20
11 | CC1(C)C2CC[C@@]1(C)C(=O)C2 | < 4.70 | > 20
12 | COc1cc2c(cc1O)CC1c3c(cc(O)c(OC)c3-2)CCN1C (configuration not stated) | < 4.70 | > 20
13 | CN1[C@@H]2CC[C@H]1CC(O)C2 (some centres not stated) | < 4.70 | > 20
14 | CC(C)Nc1ccc(Nc2ccccc2)cc1 | < 4.70 | > 20
15 | CC(=O)O[C@@]12CO[C@@H]1C[C@H](O)[C@@]1(C)C(=O)[C@H](O)C3=C(C)[C@@H](OC(=O)[C@H](O)[C@@H](NC(=O)OC(C)(C)C)c4ccccc4)C[C@](O)([C@@H](OC(=O)c4ccccc4)[C@H]21)C3(C)C | < 4.70 | > 20
16 | COc1ccc2c(c1OC)C(=O)O[C@H]2[C@@H]1c2c(cc3c(c2OC)OCO3)CCN1C | < 4.70 | > 20
17 | CN1N=C(N)c2cn(C3OC(COP(=O)(O)O)C(O)C3O)c3ncnc1c23 (configuration not stated) | < 4.70 | > 20
18 | O=c1[nH]c(=O)c2ccccc2o1 | < 4.70 | > 20
19 | CC1(C)CN2C(=O)c3[nH]cnc3N(Cc3ccc(Cl)cc3)C2=N1 | < 4.70 | > 20
20 | C=C(C)C(=O)OCCCCCCCCCCCC | < 4.70 | > 20
21 | COC(=O)C1=COC(C)C2C[n+]3ccc4c([nH]c5ccccc54)c3CC12 (configuration not stated) | < 4.70 | > 20

Row | Structure (SMILES) | pIC50 | IC50 [µM]
22 | Cc1cccc(Cl)c1NC(=O)CCN1CCC[C@H]2CCC[C@@H]21 | < 4.70 | > 20
23 | CC(C)[C@H](N/C(=N\S(=O)(=O)c1ccc(Cl)cc1)N1C[C@H](c2ccccc2)C(c2ccc(Cl)cc2)=N1)C(N)=O | < 4.70 | > 20
24 | CCN(CC)C(=O)C1(c2ccccc2)CC1CN (configuration not stated) | < 4.70 | > 20
25 | CC[C@@H]1C2C[C@H](O)CC[C@]2(C)[C@H]2CC[C@]3(C)[C@@H]([C@H](C)CCC(=O)O)CC[C@H]3[C@@H]2[C@@H]1O (some centres not stated) | < 4.70 | > 20
26 | CC1C(=O)OC2C(O)C34C5CC(C(C)(C)C)C36C(OC(=O)C6O)OC4(C(=O)O5)C12O (configuration not stated) | < 4.70 | > 20
27 | CN[C@H](Cc1ccccc1)C(=O)N1CCC[C@H]1C(=O)N[C@H](C=O)CCCNC(=N)N | < 4.70 | > 20
28 | COc1ccccc1N1CCN(CCCNc2cc(=O)n(C)c(=O)n2C)CC1 | < 4.70 | > 20
29 | CCC(=O)OC1(c2ccccc2)CCN(C)CC1 | < 4.70 | > 20
30 | O=C(O)c1cc(NC(=O)[C@H](Cc2ccccc2F)NC(=O)c2cc3[nH]cnc3cc2C(=O)NCC2CCCCCC2)cc(C(=O)O)c1 | < 4.70 | > 20
31 | O=[N+]([O-])c1ccc(NN=C(c2ccc(O)cc2)c2ccc(O)cc2)c([N+](=O)[O-])c1 | < 4.70 | > 20
32 | CNCC(O)c1cccc(O)c1 (configuration not stated) | < 4.70 | > 20
33 | CC(=O)NC(CCC(N)=O)C(=O)O (configuration not stated) | < 4.70 | > 20
34 | CN(c1nc2ccccc2s1)C1CCN(C[C@@H](O)COc2ccc(F)c(F)c2)CC1 | < 4.70 | > 20
35 | O=P(O)(O)OCC(O)CO (configuration not stated) | < 4.70 | > 20
36 | OC[C@H]1O[C@H](O)[C@@H](O)[C@@H](O)[C@@H]1O | < 4.70 | > 20
37 | COc1ccc(C(=O)N2CCCC2=O)cc1 | < 4.70 | > 20
38 | COc1ccc([C@@H]2CNC(=O)[C@@H](Cc3cccc(C)c3)C2)cc1OC1CCCC1 | < 4.70 | > 20
39 | CC(C)(C)C(=O)Oc1ccc2c(c1)O[C@@H](c1ccc(OCCN3CCCCC3)cc1)C1=C2COc2cc(OC(=O)C(C)(C)C)ccc21 | < 4.70 | > 20
40 | Cc1ccnc(N)c1 | < 4.70 | > 20
41 | CC1NCCc2cc(O)c(O)cc21 (configuration not stated) | < 4.70 | > 20
42 | CCC(=O)c1ccc(OCC(O)CN2CCN(c3ccccc3)CC2)cc1 (configuration not stated) | < 4.70 | > 20

Row | Structure (SMILES) | pIC50 | IC50 [µM]
43 | CC(C)C(C)/C=C/C(C)C1CCC2C3=CC=C4CC(O)CCC4(C)[C@H]3CCC21C (some centres not stated) | < 4.70 | > 20
44 | COc1ccc2c(c1)C[C@@H](C)N(CCc1ccc(N)cc1)CC2 | < 4.70 | > 20
45 | CC(=O)C1CCC2C3CC[C@H]4C[C@H](O)CCC4(C)C3C(=O)CC12C (some centres not stated) | < 4.70 | > 20
46 | CCN(CC)CCOC(=O)C(c1ccccc1)C1(O)CCCC1 (configuration not stated) | < 4.70 | > 20
47 | CCn1c(=O)n(CCCN2CCN(c3cccc(Cl)c3)CC2)n[13c]1[13CH2][13CH3] | < 4.70 | > 20
48 | CC1(C)SC2C(/N=C/N3CCCCCC3)C(=O)N2C1C(=O)O (configuration not stated) | < 4.70 | > 20
49 | Cc1cc(C)c2c3ccccc3n(Cc3ccc([C@@H](C(=O)N[C@@H](CO)c4ccccc4)C4CCCC4)cc3)c2n1 | < 4.70 | > 20
50 | CC(=O)OCC(=O)C12N=C(C)OC1CC1C3CCC4=CC(=O)C=CC4(C)C3(F)C(O)CC12C (configuration not stated) | < 4.70 | > 20
51 | CS(=O)(=O)c1ccc([C@@H](O)[C@H](CF)NC(=O)C(Cl)Cl)cc1 | < 4.70 | > 20
52 | CC(=O)O[C@H]1CC[C@@]2(C)C(CC[C@]3(C)C2C(=O)C=C2[C@H]4C[C@@](C)(C(=O)O)CC[C@]4(C)CC[C@]23C)C1(C)C (some centres not stated) | < 4.70 | > 20
53 | CCN(CC)CC(=O)OCC(=O)C1(O)CCC2C3CCC4=CC(=O)CCC4(C)C3C(O)CC21C (configuration not stated) | < 4.70 | > 20
54 | CC1CC[C@@]2(OC1)OC1CC3C4CC[C@@H]5C[C@@H](O)CC[C@]5(C)C4CC[C@]3(C)C1[C@@H]2C (some centres not stated) | < 4.70 | > 20
55 | C[C@@H](NCCCCc1ccccc1)[C@@H](O)c1ccc2c(c1)CCS2 | < 4.70 | > 20
56 | CC(C)CCCC(C)C1CCC2C3C(=O)C=C4CC(O)CCC4(C)C3CCC12C (configuration not stated) | < 4.70 | > 20
57 | CC1(O)CCC2C3CCC4=CC(=O)CCC4C3CCC21C (configuration not stated) | < 4.70 | > 20
58 | CC(=O)O[C@@H]1CC2(C)C(C(C)=O)CCC2C2CCC3=CC(=O)CCC3(C)C21 (some centres not stated) | < 4.70 | > 20
59 | CCC(/C=C/C(C)C1CCC2C3CC=C4CC(O)CCC4(C)C3CCC12C)C(C)C (configuration not stated) | < 4.70 | > 20
60 | CC(=O)OC1C([N+]2(C)CCCCC2)CC2C3CC[C@H]4C[C@H](OC(C)=O)C([N+]5(C)CCCCC5)CC4(C)C3CCC21C (some centres not stated) | < 4.70 | > 20
61 | CC(=O)OC1CCC2(C)C3CC(=O)C4(C)C(C(C)=O)=CCC4C3CC[C@H]2C1 (some centres not stated) | < 4.70 | > 20
62 | CC12CC(=O)C3C(CC[C@H]4CC(O)CCC34C)C1CCC2C(=O)CO (some centres not stated) | < 4.70 | > 20
63 | CC1(C)Oc2ccc(OC(F)(F)F)cc2[C@@H](N2Cc3ccccc3C2=O)C1O (some centres not stated) | < 4.70 | > 20

Row | Structure (SMILES) | pIC50 | IC50 [µM]
64 | CC(=O)C1CCC2C3CCC4=CC(=O)CCC4(C)C3C(O)CC12C (configuration not stated) | < 4.70 | > 20
65 | CC12CCC(=O)C(O)=C1CCC1C2CCC2(C)C1CC[C@]2(C)O (some centres not stated) | < 4.70 | > 20
66 | COCC(=O)Nc1ccc(/N=C(\C)N(C)C)cc1 | < 4.70 | > 20
67 | C[C@@H]1NC(=O)CO[C@@H]1c1ccccc1 | < 4.70 | > 20
68 | CC(=O)O[C@@H]1CCC2C3CCc4cc(O)ccc4C3CCC21C (some centres not stated) | < 4.70 | > 20
69 | CC(=O)OC1CCC2C3CCC4C/C(=N\Oc5ccc([N+](=O)[O-])cc5)C(Cl)CC4(C)C3CCC12C (configuration not stated) | < 4.70 | > 20
70 | CCC[C@@H]1C[C@@H](C(=O)NC(C2O[C@H](SC)[C@H](OP(=O)(O)O)[C@@H](O)[C@H]2O)[C@H](C)Cl)N(C)C1 (some centres not stated) | < 4.70 | > 20
71 | COc1cc(N)c(Cl)cc1C(=O)N[C@H]1CCNC[C@H]1OC | < 4.70 | > 20
72 | C[C@H](CCC(=O)O)[C@H]1CC[C@H]2[C@@H]3CCC4C[C@H](O)CC[C@]4(C)[C@H]3CC[C@]12C (some centres not stated) | < 4.70 | > 20
73 | CC(CCC(=O)O)C1CCC2C3C(=O)C[C@@H]4CC(=O)CC[C@]4(C)C3CC(=O)[C@]12C (some centres not stated) | < 4.70 | > 20
74 | CC(CNS(=O)(=O)C(C)C)c1ccc(NC(=O)c2cc(F)cc(F)c2)cc1 (configuration not stated) | < 4.70 | > 20
75 | C#CCOC[C@@H]1CO[C@@](Cn2ccnc2)(c2ccc(Cl)cc2Cl)O1 | < 4.70 | > 20
76 | CSCC1CN(/N=C/c2ccc([N+](=O)[O-])o2)C(=O)O1 (configuration not stated) | < 4.70 | > 20
77 | Cc1cccc(C)c1NC(=O)NCCCNC(C)C | < 4.70 | > 20
78 | C=CCN1CCC23c4c5ccc(O)c4OC2C(O)C=CC3C1C5 (configuration not stated) | < 4.70 | > 20
79 | C/C(=N\N=C(/S)N/N=C(\S)Nc1ccccc1Cl)c1ccccn1 | < 4.70 | > 20
80 | C=CCNc1nc(NCC=C)nc(N2CCC(NCC(c3ccc(F)cc3)c3ccc(F)cc3)CC2)n1 | < 4.70 | > 20
81 | C[C@@H]1[C@@H]2Cc3ccc(O)cc3C1(C)CCN2C | < 4.70 | > 20
